Patent publication US20170209499A1, “Propolis and Extracts Thereof for the Treatment of Skin Cancers and Improvement of Skin Health” (Manuka Health New Zealand Limited, priority 2014, published 2017)
Values joined by “and” are separate entries in the source; they are usually repeats but may differ in a detail not shown here. Equal entries are not always repeated.

Key:
Type in all cases: cell-based
[1] = tested on: human melanoma cell line A-2058; test: MTT cell proliferation assay, human melanoma cell line A-2058; details: for Mean OD: MTT Optical Density at 570 nm
From the text: This example describes the in vitro bioassay used for determining the anti-proliferative activity of test compounds and cyclodextrin-encapsulated propolis complexes against human skin cancer cell lines. The present example tests anti-proliferative efficacy against the human melanoma cell line, A-2058. The cyclodextrin-encapsulated propolis complexes tested are those described in Example 1. The NZ propolis was the same propolis used to manufacture the cyclodextrin complexes CD1-CD3. The Brazilian Green propolis was the same propolis used to manufacture the cyclodextrin complex CD4. The test samples were dissolved in 15% Ethanol (EtOH)/HBSS to make a working solution, which was then diluted 10 times to give a final concentration in the cells of 50 μg/ml unless indicated otherwise.
(§1) The three human skin cancer cell lines were: • 1) Human Melanoma cell line (A-2058). • 2) Human Epidermoid (Squamous) Carcinoma cell line (A-431). • 3) Human Basal Cell Carcinoma cell line (TE 354.T).
(§2) The cell lines were revived from cryostorage and cultured in the presence of the test and reference samples. An MIT assay was then performed on the cultures to determine the effect of the samples on the cell viability and proliferation. The percentage standard error of the mean was assessed and extreme outliers were removed if the SEM%>15. Preliminary statistical significance was assessed with an independent Student t-test at α<0.05 (with and without outliers). The methodology was based on the procedures reported by: • Ahn, N G, Campbell J S (1993). […] Proc Natl Acad Sci. 90: 5143-5147. • Galan-Cobo, A et al (2014). Functional inhibition of aquaporin-3 with a gold-based compound induces blockage of cell proliferation. J Cellul. Physiol. 229: 1787-1801. • Roomi, M W, Kalinovsky, J et al (2013) Effect of a nutrient mixture on matrix metalloproteinase-9 dimers in various human cancer cell lines. Inter 3 Oncol. 44: 936-942. • Huang, H C, Lin, M K et al (2013). Cardenolides and bufadienolide glycosides from Kalanchoe tubiflora and evaluation of cytotoxicity. Planta Medica. 79: 1362-1369. • Tilli, C M L J, Stavast-Kooy, A J W et al (2003). The garlic-derived organosulfur component ajoene decreases basal cell carcinoma tumor size by inducing apoptosis. Arch Dermatol Res. 295: 117-123.
• 1. Human melanoma cell line (A-2058, ATCC CRL11147) was obtained from ATCC, Bethesda, Md., USA. • 2. Human squamous (epidermoid) carcinoma cell line (A-431, ATCC CRL1555) was obtained from ATCC, Bethesda, Md. USA. • 3. Human basal cell carcinoma cell line (TE 354.T, ATCC CRL7762) was obtained from ATCC, Bethesda, Md., USA. • 4. Dulbecco's Modified Eagle's Medium (DMEM) was obtained from GIBCO (12100-038). 10% Foetal Bovine Serum (FBS), 100 U/ml Penicillin and […] Streptomycin were added before use. • 5. Penicillin-streptomycin solution, stored at −20° C. consisting of 10000 units/ml penicillin and 10 mg/ml streptomycin in 0.9% NaCl was obtained from Sigma (#P-0781). • 6. Trypsin-EDTA solution consisting of 0.25% Trypsin/EDTA was obtained from Invitrogen (#15400054). • 7. Phosphate buffered saline (PBS) was prepared in-house. • 8. Hanks Balanced Salt Solution (HBSS), stored at 4° C. was obtained from GIBCO (#14185-052). • 9. Foetal Bovine Serum (FBS) stored at −20° C. was obtained from GIBCO (#10091-148). • 10. MTT Reagent, 100 mg/vial, was obtained from Sigma (M-2128) and then dissolved in PBS at 10 mg/ml and stored at −20° C. A 5 mg/ml MTT solution was prepared in PBS and stored at 4° C. as the working solution. • 11. MU lysis buffer: 10% sodium dodecyl sulphate (SDS)/45% Dimethyl Formamide was prepared by dissolving 20 g SDS in 100 ml of double-distilled water (DDW), and then adding 90 ml of Dimethyl Formamide to the solution. The pH was adjusted to 4.7 by glacial acetic acid, and DDW added up to a final volume of 200 ml. • 12. 5-Fluorouracil (5-FU) was supplied by Sigma (F-6627). Three working solutions were prepared at 19.5 μg/ml. 6.5 μg/ml and 1.95 μg/ml dissolved in 15% Ethanol/HBSS. […]

[2] = tested on: human basal carcinoma cell line TE 354.T; test: MTT cell proliferation assay, human basal cell carcinoma cell line TE 354.T; details: 200 μg/ml; for % inhibition / inhibition at 200 µg/mL: 24 hr incubation, vs cells only; for Mean OD: MTT Optical Density at 570 nm; for inhibition at 200 µg/mL: Homo sapiens
Method: as §1, §2
(§3) • 1. Human melanoma cell line (A-2058, ATCC CRL11147) was obtained from ATCC, Bethesda, Md., USA. • 2. Human squamous (epidermoid) carcinoma cell line (A-431, ATCC CRL1555) was obtained from ATCC, Bethesda, Md. USA. • 3. Human basal cell carcinoma cell line (TE 354.T, ATCC CRL7762) was obtained from ATCC, Bethesda, Md., USA. • 4. Dulbecco's Modified Eagle's Medium (DMEM) was obtained from GIBCO (12100-038). 10% Foetal Bovine Serum (FBS), 100 U/ml Penicillin and […] Streptomycin were added before use. • 5. Penicillin-streptomycin solution, stored at −20° C. consisting of 10000 units/ml penicillin and 10 mg/ml streptomycin in 0.9% NaCl was obtained from Sigma (#P-0781). • 6. Trypsin-EDTA solution consisting of 0.25% Trypsin/EDTA was obtained from Invitrogen (#15400054). • 7. Phosphate buffered saline (PBS) was prepared in-house. • 8. Hanks Balanced Salt Solution (HBSS), stored at 4° C. was obtained from GIBCO (#14185-052). • 9. Foetal Bovine Serum (FBS) stored at −20° C. was obtained from GIBCO (#10091-148). • 10. MTT Reagent, 100 mg/vial, was obtained from Sigma (M-2128) and then dissolved in PBS at 10 mg/ml and stored at −20° C. A 5 mg/ml MTT solution was prepared in PBS and stored at 4° C. as the working solution. • 11. MU lysis buffer: 10% sodium dodecyl sulphate (SDS)/45% Dimethyl Formamide was prepared by dissolving 20 g SDS in 100 ml of double-distilled water (DDW), and then adding 90 ml of Dimethyl Formamide to the solution. The pH was adjusted to 4.7 by glacial acetic acid, and DDW added up to a final volume of 200 ml. • 12. 5-Fluorouracil (5-FU) was supplied by Sigma (F-6627). Three working solutions were prepared at 19.5 μg/ml. 6.5 μg/ml and 1.95 μg/ml dissolved in 15% Ethanol/HBSS. Final concentrations were 1.95 μg/ml (15 μM), 0.65 μg/ml (5 μM) and 0.195 μg/ml (1.5 μM).
(§4) • 1. Each of the cell lines was revived from cryostorage. • 2. Following initial propagation using the media described above (Characterisation of Test System, and Medium Preparation), the cell culture was subcultured using trypsin-EDTA. The media was removed and 5ml of the trypsin-EDTA solution added and incubated at 37° C. for 5 min or until all the cells had detached. The trypsin was neutralised by the addition of an equal volume of the relevant medium and centrifugation of the suspension at 300 g (1200 rpm) for 5 min at 4° C. • 3. […]

[3] = tested on: human epidermoid cancer cell line A-431; test: MTT cell proliferation assay, human epidermoid (squamous) carcinoma cell line A-431; details: A-431, 200 μg/ml; for % inhibition / inhibition at 200 µg/mL: 24 hr incubation, vs cells only; for Mean OD: MTT Optical Density at 570 nm; for inhibition at 200 µg/mL: Homo sapiens
Method: as §1, §2, §3, §4

[4] = Homo sapiens, A2058, 24 h, A-2058, final conc. 200 μg/ml, 24 hr incubation, vs cells only
[5] = A-2058, final conc. 200 μg/ml, 24 hr incubation, vs cells only

SMILES	Mean OD ([1]; A-2058, 200 μg/ml)	inhibition at 200 µg/mL [1, 4] [%]	% inhibition [1, 5]	also measured
O=C(O)/C=C/C=C/c1ccccc1 [5-phenyl penta-2,4-dienoic acid, 5-phenylpenta-2,4-dienoic acid]	0.1548	23.1	–	–
COc1cc(/C=C/C(=O)OCc2ccccc2)ccc1O [Benzyl ferulate]	0.0040	98	completely killed all the melanoma cells	–
O=C(/C=C/c1ccc(O)c(O)c1)OCCc1ccccc1 [CAPE, caffeic acid phenethyl ester, reference compound]	0.1018	49.4	49.43%	–
C=C(C)CCOC(=O)/C=C/c1ccc(O)c(O)c1 [Complex 3M3BC, 3-methyl-3-butenyl caffeate]	–	–	–	% inhibition [2]: weak inhibitors of proliferation; Mean OD [2]: 0.2245; inhibition at 200 µg/mL [2]: 16.7%; Mean OD ([1]; A-2058, 20 μg/ml): 0.1070; % inhibition ([1]; A-2058, final conc. 20 μg/ml, 24 hr incubation, vs cells only): 46.85%; inhibition at 20 µg/mL ([1]; Homo sapiens, A2058, 24 h, A-2058, final conc. 20 μg/ml, 24 hr incubation, vs cells only): 46.8%; % inhibition [3]: very strong inhibitors of proliferation; Mean OD [3]: 0.0475; inhibition at 200 µg/mL [3]: 81.9%
CC(=O)OC1C(=O)c2c(O)cc(O)cc2OC1c1ccccc1 (stereo not drawn) [Pinobanksin-3-o-acetate, pinobanksin-3-acetate]	0.0777	61.4	61.38%	% inhibition [2]: weak inhibitors of proliferation; Mean OD [2]: 0.2416; inhibition at 200 µg/mL [2]: 10.4%; % inhibition [3]: very strong inhibitors of proliferation; Mean OD [3]: 0.0253; inhibition at 200 µg/mL [3]: 90.4%
COc1cc(O)c2c(=O)cc(-c3ccccc3)oc2c1 [Tectochrysin]	0.0272	–	86.5% and 86.48%	–
O=C(O)/C=C/c1ccc(O)cc1 [p-coumaric acid, reference compound]	0.2136	0	–	–
O=C1C[C@@H](c2ccccc2)Oc2cc(O)cc(O)c21 [pinocembrin]	0.0013	99.3	completely killed all the melanoma cells	–
